Patent US8598087B2, “Crystalline form of 4-[5-[3-chloro-5-(trifluoromethyl)phenyl]-4, 5-dihydro-5-(trifluoromethyl)-3-isoxazolyl]-N-[2-0X0-2-[(2,2,2-trifluoroethyl)amino]ethyl]-1- naph-thalenecarboxamide” (E. I. du Pont de Nemours and Company, priority 2010, dated 2013)
“Also recorded” adds a separate entry of the source.

Columns and labels:
Assay type in all cases: physicochemical
[1] = Interconversion slurry experiments (relative stability of solid forms, XRPD)
Protocol: Interconversion slurry experiments were performed in a variety of solvents at different temperatures. Sufficient amounts of Compound 1 were added to solvents in vials so that excess solid remained. The mixtures were agitated in sealed vials at the selected temperature and the solids were isolated by filtration after the selected time and analyzed by XRPD.

[2] = Physical stability of amorphous Compound 1 (vapor stress and slurry, XRPD)
Protocol: The physical stability of the amorphous material was characterized. […] Amorphous Compound 1 was also slurried in methanol\water (1:1) for 5 days at 60° C. resulting in irregular fragments of crystals determined to be Form B by XRPD.

[3] = Physical stability / hygroscopicity of polymorph Form A (relative humidity exposure); details: 5 to 95% relative humidity at 25° C. (5 hours)
Protocol: The physical stability of polymorph Form A was characterized. A samples of Form A exposed to 5 to 95% relative humidity at 25° C.

[4] = Physical stability of polymorph Form B under humidity stress (XRPD)
[5] = Vacuum drying experiment

O=C(CNC(=O)c1ccc(C2=NOC(c3cc(Cl)cc(C(F)(F)F)c3)(C(F)(F)F)C2)c2ccccc12)NCC(F)(F)F (racemic) [Compound 1, 4-[5-[3-chloro-5-(trifluoromethyl)phenyl]-4,5-dihydro-5-(trifluoromethyl)-3-isoxazolyl]-N-[2-oxo-2-[(2,2,2-trifluoroethyl)amino]ethyl]-1-naphthalenecarboxamide]
solid form yielded by slurry (XRPD) ([1]; acetonitrile, 3 days at 83° C.): Pattern G solid
solid form yielded by slurry (XRPD) ([1]; acetonitrile, 8 days at 0° C.): Pattern G solid
solid form yielded by slurry (XRPD) ([1]; acetonitrile/water (9:1), 3 days at 83° C.): polymorph Form B
solid form yielded by slurry (XRPD) ([1]; acetonitrile/water (9:1), 8 days at 0° C.): Pattern G solid

O=C(CNC(=O)c1ccc(C2=NOC(c3cc(Cl)cc(C(F)(F)F)c3)(C(F)(F)F)C2)c2ccccc12)NCC(F)(F)F (centres unmarked) [Amorphous Compound 1, 4-[5-[3-chloro-5-(trifluoromethyl)phenyl]-4,5-dihydro-5-(trifluoromethyl)-3-isoxazolyl]-N-[2-oxo-2-[(2,2,2-trifluoroethyl)amino]ethyl]-1-naphthalenecarboxamide]
physical stability of the amorphous solid ([2]; pure solid form, conclusion of vapor stress and slurry): physically unstable and readily crystallized
solid form obtained after slurry (by XRPD) ([2]; slurried in methanol\water (1:1) for 5 days at 60° C.): Form B
solid form obtained after vapor stress (by XRPD) ([2]; vapor stressed under acetonitrile at 25° C. for 2 days): Pattern G material

O=C(CNC(=O)c1ccc(C2=NOC(c3cc(Cl)cc(C(F)(F)F)c3)(C(F)(F)F)C2)c2ccccc12)NCC(F)(F)F (centres unmarked) [Form A, 4-[5-[3-chloro-5-(trifluoromethyl)phenyl]-4,5-dihydro-5-(trifluoromethyl)-3-isoxazolyl]-N-[2-oxo-2-[(2,2,2-trifluoroethyl)amino]ethyl]-1-naphthalenecarboxamide]
hygroscopicity [3]: non-hygroscopic
weight change on exposure to relative humidity [3]: negligible weight change
relative physical stability of solid forms ([1]; in acetonitrile): metastable solid form

O=C(CNC(=O)c1ccc(C2=NOC(c3cc(Cl)cc(C(F)(F)F)c3)(C(F)(F)F)C2)c2ccccc12)NCC(F)(F)F (centres unmarked) [Form B, 4-[5-[3-chloro-5-(trifluoromethyl)phenyl]-4,5-dihydro-5-(trifluoromethyl)-3-isoxazolyl]-N-[2-oxo-2-[(2,2,2-trifluoroethyl)amino]ethyl]-1-naphthalenecarboxamide]
change by XRPD after humidity stress ([4]; 60% relative humidity (25° C.) for 1 month): unchanged by XRPD
change by XRPD after humidity stress ([4]; 75% relative humidity (40° C.) for 1 month): unchanged by XRPD
physical stability of Form B ([4]; pure solid form, conclusion of humidity stress conditions tested): physically stable; also recorded: stable under the conditions tested
relative physical stability of solid forms ([1]; in organic solvent/water mixtures especially methanol/water): most stable solid form

O=C(CNC(=O)c1ccc(C2=NOC(c3cc(Cl)cc(C(F)(F)F)c3)(C(F)(F)F)C2)c2ccccc12)NCC(F)(F)F (centres unmarked) [Pattern G solid]
solid form obtained after vacuum drying ([5]; vacuum drying (36-68 mtorr) at 50° C. for 4 hours): Form A
solid form obtained after vacuum drying ([5]; vacuum drying (51 mtorr) at 70° C. for 5 hours): solid glass
relative physical stability of solid forms ([1]; in acetonitrile): most stable solid form
